Reference: patent publication US20230141603A1, “BENZODIAZEPINE DERIVATIVES AS GABA A GAMMA1 PAM” (Hoffmann-La Roche Inc., priority 2021, published 2023)

biological target: T1, h-GABAA α5β2γ1 (Homo sapiens, UniProt P31644+Q8N1C3); experiment: Radioligand binding assay, [3H]RO7239181 competition, HEK293F membranes
T1 construct: expressed in transfected cells; host or cells: HEK293F cells (ThermoFisher R79007), membranes
T1 sequence (P31644 32-462): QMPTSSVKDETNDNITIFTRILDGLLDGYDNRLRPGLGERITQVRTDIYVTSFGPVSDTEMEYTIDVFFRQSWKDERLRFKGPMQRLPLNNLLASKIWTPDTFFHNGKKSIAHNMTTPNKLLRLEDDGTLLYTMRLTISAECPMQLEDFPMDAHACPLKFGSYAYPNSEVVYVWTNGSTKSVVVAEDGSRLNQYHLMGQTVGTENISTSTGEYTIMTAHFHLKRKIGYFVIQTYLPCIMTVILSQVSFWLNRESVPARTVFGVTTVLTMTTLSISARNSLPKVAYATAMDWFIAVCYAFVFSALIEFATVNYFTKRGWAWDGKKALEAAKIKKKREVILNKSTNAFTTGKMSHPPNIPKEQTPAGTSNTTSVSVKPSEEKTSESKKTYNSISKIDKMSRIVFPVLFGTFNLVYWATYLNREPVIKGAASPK
T1 sequence (P47870 25-512 partner limits assumed): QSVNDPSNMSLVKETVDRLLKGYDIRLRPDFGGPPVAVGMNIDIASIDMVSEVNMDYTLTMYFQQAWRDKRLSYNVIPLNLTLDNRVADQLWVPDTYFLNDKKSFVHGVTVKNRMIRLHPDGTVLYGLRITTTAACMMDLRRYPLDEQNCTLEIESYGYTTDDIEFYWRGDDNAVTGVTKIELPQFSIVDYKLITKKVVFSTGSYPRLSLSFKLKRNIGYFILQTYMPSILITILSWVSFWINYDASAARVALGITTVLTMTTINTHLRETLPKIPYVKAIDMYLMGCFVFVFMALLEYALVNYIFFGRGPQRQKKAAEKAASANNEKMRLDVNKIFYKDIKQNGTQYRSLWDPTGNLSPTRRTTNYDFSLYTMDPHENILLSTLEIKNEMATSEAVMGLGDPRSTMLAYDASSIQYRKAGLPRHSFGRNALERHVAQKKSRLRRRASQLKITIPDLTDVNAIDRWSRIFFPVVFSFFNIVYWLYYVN
T1 sequence (Q8N1C3 36-465): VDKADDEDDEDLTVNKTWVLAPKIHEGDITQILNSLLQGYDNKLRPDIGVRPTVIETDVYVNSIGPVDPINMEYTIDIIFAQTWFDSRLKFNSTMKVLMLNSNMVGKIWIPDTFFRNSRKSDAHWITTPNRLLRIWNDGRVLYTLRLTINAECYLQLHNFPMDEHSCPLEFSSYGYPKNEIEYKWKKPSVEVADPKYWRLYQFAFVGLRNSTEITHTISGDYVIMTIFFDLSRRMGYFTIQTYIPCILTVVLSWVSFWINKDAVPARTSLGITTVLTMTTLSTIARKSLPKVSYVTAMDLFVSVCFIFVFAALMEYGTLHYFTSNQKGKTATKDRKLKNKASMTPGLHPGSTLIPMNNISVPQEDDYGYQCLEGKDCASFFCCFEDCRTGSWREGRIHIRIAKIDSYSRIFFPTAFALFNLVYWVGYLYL
Description: The affinity of compounds at GABAA γ1 subunit-containing receptors was measured by competition for [^3H]RO7239181 (67.3 Ci/mmol; Roche) binding to membranes from HEK293F cells (ThermoFisher R79007) expressing human (transiently transfected) receptors of composition […], α2β2γ1, α1β2γ1. For better protein expression of the α2 subunit-containing receptors, the 28 amino acid long signal peptide (Met1 to Ala28) of the human GABAA α2 subunit was substituted by the 31 amino acid long signal peptide (Met1 to Ser31) of human GABAA α5 subunit.
Harvested pellets from HEK293F cells expressing the different GABAA receptor subtypes were resuspended in Mannitol Buffer pH 7.2-7.4 (Mannitol 0.29M, Triethylamine 10 mM, Acetic acid 10 mM, EDTA 1 mM plus protease inhibitors (20 tablets Complete, Roche Diagnostics Cat. No. 05 056 489 001 per liter)), washed two times and then resuspended at 1:10 to 1:15 dilution in the same buffer. Cell disruption was performed by stirring the suspension in a Parr vessel #4637 at 435 psi for 15 minutes, and then the suspensions were centrifuged at 1000×g for 15 minutes at 4° C. (Beckman Avanti J-HC; rotor JS-4.2). The supernatant (S1) was transferred in a 21 Schott flask and the pellet (P1) was resuspended with Mannitol Buffer up to 175 ml. The resuspended pellet was transferred into a 250 ml Corning centrifugal beaker and centrifuged at 1500×g for 10 minutes at 4° C. (Beckman Avanti J-HC; rotor JS-4.2). The supernatant (S1) was then transferred in the 21 Schott flask and the pellet was discarded. The supernatants (S1) were centrifuged in 500 ml Beckman polypropylene centrifugal beaker at 15′000×g for 30 minutes at 4° C. (Beckman Avanti J-20 XP; rotor JLA-10.500). The pellet (P2) was resuspended with Mannitol Buffer 1:1 and frozen at −80° C. The supernatant (S2) was centrifuged in 100 ml Beckman polypropylene centrifugal tubes at 48000×g for 50 minutes at 4° C. (Beckman Avanti J-20 XP; rotor JA-18). The supernatant (S3) was discarded and the pellet (P3) was resuspended with 1:1 Mannitol Buffer. The P2 and P3 protein concentration was determined with the BIORAD Standard assay method with bovine serum albumin as standard and measured on the NANO-Drop 1000. The membrane suspension was aliquots (500 μl per tube) and stored at −80° C. until required. Membrane homogenates were resuspended and polytronised (Polytron PT1200E Kinematica AG) in Potassium Phosphate 10 mM, KCl 100 mM binding buffer at pH 7.4 to a final assay concentration determined with a previous experiment.
Radioligand binding assays were carried out in a volume of 200 μL (96-well plates) which contained 100 μL of cell membranes, [^3H]RO7239181 at a concentration of 1.5 nM (α5β2γ1) or 20-30 nM (α1β2γ1, α2β2γ1) and the test compound in the range of [0.3-10000]×10^−9 M. Nonspecific binding was defined by 10×10^−6 (α5β2γ1) and 30×10^−6 M RO7235136 and typically represented less than 5% (α5β2γ1) and less than 20% (α1β2γ1, α2β2γ1) of the total binding. Assays were incubated to equilibrium for 1 hour at 4° C. and then, membranes were filtered onto unifilter (96-well white microplate with bonded GF/C filters preincubated 20-50 minutes in 0.3% Polyethylenimine) with a Filtermate 196 harvester (Packard BioScience) and washed 4 times with cold Potassium Phosphate 10 mM pH 7.4, KCl 100 mM binding buffer. After drying, filter-retained radioactivity was detected by liquid scintillation counting. Ki values were calculated using Excel-Fit (Microsoft) and are the means of two determinations.

SMILES	Ki
Cl.NCc1nnc2n1-c1ccc(Br)c(Cl)c1C(c1c(F)cccc1F)=NC2 [Example 36, [8-bromo-7-chloro-6-(2,6-difluorophenyl)-4H-[1,2,4]triazolo[4,3-a][1,4]benzodiazepin-1-yl]methanamine hydrochloride]	1.8 nM
Fc1cccc(F)c1C1=NCc2nncn2-c2ccc(C(F)(F)F)c(Cl)c21 [Example 37, 7-chloro-6-(2,6-difluorophenyl)-8-(trifluoromethyl)-4H-[1,2,4]triazolo[4,3-a][1,4]benzodiazepine]	2.1 nM
Fc1cccc(F)c1C1=NCc2nnc(-c3cccnn3)n2-c2ccc(C(F)(F)F)c(Cl)c21 [Example 38, 7-chloro-6-(2,6-difluorophenyl)-1-pyridazin-3-yl-8-(trifluoromethyl)-4H-[1,2,4]triazolo[4,3-a][1,4]benzodiazepine]	1.9 nM
Fc1cccc(F)c1C1=NCc2nnc(-c3cccnn3)n2-c2ccc(I)c(Cl)c21 [Example 39, 7-chloro-6-(2,6-difluorophenyl)-8-iodo-1-pyridazin-3-yl-4H-[1,2,4]triazolo[4,3-a][1,4]benzodiazepine]	0.8 nM
Cc1nnc2n1-c1ccc(C(F)(F)F)c(Cl)c1C(c1c(F)cccc1F)=NC2 [Example 40, 7-chloro-6-(2,6-difluorophenyl)-1-methyl-8-(trifluoromethyl)-4H-[1,2,4]triazolo[4,3-a][1,4]benzodiazepine]	1.9 nM
Cc1nnc2n1-c1ccc(I)c(Cl)c1C(c1c(F)cccc1F)=NC2 [Example 41, 7-chloro-6-(2,6-difluorophenyl)-8-iodo-1-methyl-4H-[1,2,4]triazolo[4,3-a][1,4]benzodiazepine]	0.8 nM
Fc1cccc(F)c1C1=NCc2nnc(-c3cccnn3)n2-c2ccc(Br)c(Br)c21 [Example 42, 7,8-dibromo-6-(2,6-difluorophenyl)-1-pyridazin-3-yl-4H-[1,2,4]triazolo[4,3-a][1,4]benzodiazepine]	0.9 nM
Fc1cccc(F)c1C1=NCc2nnc(-c3ccncn3)n2-c2ccc(Br)c(Br)c21 [Example 43, 7,8-dibromo-6-(2,6-difluorophenyl)-1-pyrimidin-4-yl-4H-[1,2,4]triazolo[4,3-a][1,4]benzodiazepine]	1.4 nM
Clc1cccnc1C1=NCc2nnc(-c3ccncn3)n2-c2ccc(Br)c(Cl)c21 [Example 44, 8-bromo-7-chloro-6-(3-chloro-2-pyridyl)-1-pyrimidin-4-yl-4H-[1,2,4]triazolo[4,3-a][1,4]benzodiazepine]	1.4 nM
Fc1cccnc1C1=NCc2nnc(-c3cccnn3)n2-c2ccc(Br)c(Cl)c21 [Example 45, 8-bromo-7-chloro-6-(3-fluoro-2-pyridyl)-1-pyridazin-3-yl-4H-[1,2,4]triazolo[4,3-a][1,4]benzodiazepine]	3 nM
Fc1cccnc1C1=NCc2nnc(-c3ccncn3)n2-c2ccc(Br)c(Cl)c21 [Example 46, 8-bromo-7-chloro-6-(3-fluoro-2-pyridyl)-1-pyrimidin-4-yl-4H-[1,2,4]triazolo[4,3-a][1,4]benzodiazepine]	3.9 nM
Clc1cccnc1C1=NCc2nnc(-c3cccnn3)n2-c2ccc(Br)c(Cl)c21 [Example 47, 8-bromo-7-chloro-6-(3-chloro-2-pyridyl)-1-pyridazin-3-yl-4H-[1,2,4]triazolo[4,3-a][1,4]benzodiazepine]	1.3 nM
Cc1ccc2c(c1Cl)C(c1c(F)cccc1F)=NCc1nnc(-c3cccnn3)n1-2 [Example 48, 7-chloro-6-(2,6-difluorophenyl)-8-methyl-1-pyridazin-3-yl-4H-[1,2,4]triazolo[4,3-a][1,4]benzodiazepine]	1.1 nM
Cc1ccc2c(c1Cl)C(c1c(F)cccc1F)=NCc1nnc(-c3ccncn3)n1-2 [Example 49, 7-chloro-6-(2,6-difluorophenyl)-8-methyl-1-pyrimidin-4-yl-4H-[1,2,4]triazolo[4,3-a][1,4]benzodiazepine]	1.7 nM
Cc1nnc2n1-c1ccc(Br)c(Cl)c1C(c1c(F)cccc1Cl)=NC2 [Example 50, 8-bromo-7-chloro-6-(2-chloro-6-fluoro-phenyl)-1-methyl-4H-[1,2,4]triazolo[4,3-a][1,4]benzodiazepine]	1 nM
Fc1cccnc1C1=NCc2nnc(-c3cccnn3)n2-c2ccc(Cl)c(Cl)c21 [Example 54, 7,8-dichloro-6-(3-fluoro-2-pyridyl)-1-pyridazin-3-yl-4H-[1,2,4]triazolo[4,3-a][1,4]benzodiazepine]	3.8 nM
Fc1cccnc1C1=NCc2nnc(-c3ccncn3)n2-c2ccc(Cl)c(Cl)c21 [Example 55, 7,8-dichloro-6-(3-fluoro-2-pyridyl)-1-pyrimidin-4-yl-4H-[1,2,4]triazolo[4,3-a][1,4]benzodiazepine]	5.5 nM
COc1ccc2c(c1Cl)C(c1c(F)cccc1F)=NCc1nnc(-c3cccnn3)n1-2 [Example 57, 7-chloro-6-(2,6-difluorophenyl)-8-methoxy-1-pyridazin-3-yl-4H-[1,2,4]triazolo[4,3-a][1,4]benzodiazepine]	4.6 nM
Cn1cc(-c2nnc3n2-c2ccc(Cl)c(Cl)c2C(c2ncccc2F)=NC3)cn1 [Example 58, 7,8-dichloro-6-(3-fluoro-2-pyridyl)-1-(1-methylpyrazol-4-yl)-4H-[1,2,4]triazolo[4,3-a][1,4]benzodiazepine]	3.6 nM
O=c1[nH]nc2n1-c1ccc(Cl)c(Cl)c1C(c1ncccc1F)=NC2 [Example 59, 7,8-dichloro-6-(3-fluoro-2-pyridyl)-2,4-dihydro-[1,2,4]triazolo[4,3-a][1,4]benzodiazepin-1-one]	5.9 nM
